In US10022387B2, “Aza-heteroaryl compounds as PI3K-gamma inhibitors” (Incyte Corporation, priority 2015, dated 2018) one finds IC50 data, which are given here for 3 compounds.

Structures are written as SMILES.

The target of assay [1] is PI3Kδ (p110δ/p85α) Recombinant Human Protein (Homo sapiens (Human), UniProt O00329). Nature of the assay: PI3Kδ Scintillation Proximity Assay. The settings on record: 20 μM PIP2, 2 μM ATP, 3.4 nM PI3Kδ, 120 min; read-out: PI3K-delta SPA IC50. The format is biochemical. From the text:
[γ-^33P]ATP (10 mCi/mL) and Wheat Germ Agglutinin (WGA) YSi SPA Scintillation Beads was purchased from Perkin-Elmer (Waltham, Mass.). Lipid kinase substrate, D-myo-Phosphatidylinositol 4,5-bisphosphate (PtdIns(4,5)P2)D (+)-sn-1,2-di-O-octanoylglyceryl, 3-O-phospho linked (PIP2), CAS 204858-53-7, was purchased from Echelon Biosciences (Salt Lake City, Utah). PI3Kδ (p110δ/p85α) Recombinant Human Protein was purchased from Eurofins (St. Charles, Mo.). ATP, MgCl2, DTT, EDTA, MOPS and CHAPS were purchased from Sigma-Aldrich (St. Louis, Mo.).
The kinase reaction was conducted in polystyrene 384-well Greiner Bio-one white plate from Thermo Fisher Scientific in a final volume of 25 μL. Inhibitors were first diluted serially in DMSO and added to the plate wells before the addition of other reaction components. The final concentration of DMSO in the assay was 2%. The PI3Kδ assay was carried out at room temperature in 20 mM MOPS, pH 6.7, 10 mM MgCl2, 5 mM DTT and CHAPS 0.03%. Reactions were initiated by the addition of ATP, the final reaction mixture consisted of 20 μM PIP2, 2 μM ATP, 0.5 μCi [γ-^33P] ATP, 3.4 nM PI3Kδ. […] After the plate sealing, plates were shaken overnight at room temperature and centrifuged at 1500 rpm for 10 min, the radioactivity of the product was determined by scintillation counting on Topcount (Perkin-Elmer). […]
A general note: Scintillation proximity formats need no separation of bound from free tracer.

The test system of assay [2] is Phosphorylated Ribosomal Protein S6 (RPS6) in THP-1 cells. Nature of the assay: THP-1 RPS6 ELISA Assay. The assay is classed as cell-based. The settings on record: Homo sapiens, 2 hours with compound, 10 nM MCP-1 for 15 minutes, read-out: THP p-RPS6 ELISA IC50. The procedure:
To measure the Phosphorylated Ribosomal Protein S6 (RPS6) in cell lysates, THP-1 cells (Human Acute Monocytic Leukemia) are purchased from ATCC (Manassas, Va.) and maintained in RPMI with 10% FBS (Gibco/Life Technologies, Carlsbad, Calif.). For the assay, THP-1 cells are serum starved overnight in RPMI, then plated in RPMI (2×10^5 cells/well in 90 μL) into 96-well flat-bottom tissue culture treated plates (Corning, Corning, N.Y.), in the presence or absence of a concentration range of test compounds. Covered plates are incubated for 2 hours at 37° C., 5% CO2 then treated with or without 10 nM MCP-1 (MYBioSource, San Diego, Calif.) for 15 minutes at 37° C., 5% CO2. Plates are centrifuged at 1600 RPM and supernatants are removed. Cells are lysed in Lysis Buffer (Cell Signaling, Danvers, Mass.) with Protease Inhibitor (Calbiochem/EMD, Germany), PMSF (Sigma, St. Louis, Mo.), HALTS (Thermo Fisher, Rockford, Ill.) for 30 min on wet ice. Cell lysates are frozen at −80° C. before testing. The lysates are tested in the Human/Mouse/Rat Phospho-RPS6 ELISA (R&D Systems, Inc. Minn, Minn.). The plate is measured using a microplate reader (SpectraMax M5—Molecular Devices, LLC Sunnyvale, Calif.) set to 450 nm with a wavelength correction of 540. IC50 determination is performed by fitting the curve of inhibitor percent inhibition versus the log of the inhibitor concentration using the GraphPad Prism 5.0 software.
Background: ELISA stands for enzyme-linked immunosorbent assay.

Chain of PI3Kδ (p110δ/p85α) Recombinant Human Protein (O00329 whole entry): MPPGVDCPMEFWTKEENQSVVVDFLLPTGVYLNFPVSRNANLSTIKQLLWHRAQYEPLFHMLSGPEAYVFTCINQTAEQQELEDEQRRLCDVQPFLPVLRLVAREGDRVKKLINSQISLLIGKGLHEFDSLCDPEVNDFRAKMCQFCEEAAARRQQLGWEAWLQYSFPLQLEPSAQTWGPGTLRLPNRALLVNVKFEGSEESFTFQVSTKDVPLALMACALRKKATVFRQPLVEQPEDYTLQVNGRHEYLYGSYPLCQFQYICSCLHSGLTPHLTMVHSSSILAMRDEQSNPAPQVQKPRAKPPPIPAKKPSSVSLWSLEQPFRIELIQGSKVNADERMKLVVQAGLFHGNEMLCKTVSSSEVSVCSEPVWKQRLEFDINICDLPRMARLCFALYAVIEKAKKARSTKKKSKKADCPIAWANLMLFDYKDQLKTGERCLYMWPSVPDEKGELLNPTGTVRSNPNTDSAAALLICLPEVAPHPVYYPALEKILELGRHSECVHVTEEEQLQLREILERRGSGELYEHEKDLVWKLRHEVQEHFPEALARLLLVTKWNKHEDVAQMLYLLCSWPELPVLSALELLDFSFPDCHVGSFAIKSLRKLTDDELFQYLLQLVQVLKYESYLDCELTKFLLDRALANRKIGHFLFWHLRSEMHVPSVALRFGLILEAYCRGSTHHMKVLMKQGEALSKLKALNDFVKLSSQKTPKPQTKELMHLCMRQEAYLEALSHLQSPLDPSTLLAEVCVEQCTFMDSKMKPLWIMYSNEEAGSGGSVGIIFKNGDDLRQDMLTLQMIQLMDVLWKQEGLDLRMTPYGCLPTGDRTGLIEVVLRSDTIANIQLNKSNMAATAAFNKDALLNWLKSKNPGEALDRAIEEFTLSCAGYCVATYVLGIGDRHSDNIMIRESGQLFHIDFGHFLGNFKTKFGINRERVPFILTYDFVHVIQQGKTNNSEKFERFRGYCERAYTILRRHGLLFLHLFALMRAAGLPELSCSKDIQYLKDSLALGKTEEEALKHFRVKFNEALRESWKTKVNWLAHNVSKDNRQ
Chain of PI3Kδ (p110δ/p85α) Recombinant Human Protein (P27986 whole entry partner): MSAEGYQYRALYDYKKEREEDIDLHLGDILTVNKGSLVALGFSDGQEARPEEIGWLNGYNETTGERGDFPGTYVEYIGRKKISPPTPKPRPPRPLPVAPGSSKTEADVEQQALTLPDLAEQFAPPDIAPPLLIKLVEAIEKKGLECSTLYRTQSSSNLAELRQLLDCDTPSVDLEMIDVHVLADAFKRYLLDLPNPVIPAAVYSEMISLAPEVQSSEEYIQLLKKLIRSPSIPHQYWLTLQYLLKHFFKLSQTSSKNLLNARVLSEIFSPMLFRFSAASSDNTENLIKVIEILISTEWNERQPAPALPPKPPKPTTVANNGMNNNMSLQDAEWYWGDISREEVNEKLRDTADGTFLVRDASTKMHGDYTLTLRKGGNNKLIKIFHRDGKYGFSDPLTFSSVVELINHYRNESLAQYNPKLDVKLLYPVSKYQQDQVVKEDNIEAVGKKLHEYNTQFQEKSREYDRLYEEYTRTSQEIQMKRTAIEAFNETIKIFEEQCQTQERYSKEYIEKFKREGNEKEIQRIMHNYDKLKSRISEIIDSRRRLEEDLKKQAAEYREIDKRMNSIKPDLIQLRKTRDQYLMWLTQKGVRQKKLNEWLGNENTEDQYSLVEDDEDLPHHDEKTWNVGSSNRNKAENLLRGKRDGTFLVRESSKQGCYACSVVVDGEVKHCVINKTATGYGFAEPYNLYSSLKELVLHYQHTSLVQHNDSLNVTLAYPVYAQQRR

For `CCS(=O)(=O)Nc1cncc(-c2ccc3nc(-c4nc5ccccc5[nH]4)oc3c2)c1` [Example 18, N-(5-(2-(1H-Benzo[d]imidazol-2-yl)benzo[d]oxazol-6-yl)pyridin-3-yl)ethanesulfonamide], the IC50 in assay [1] was < 1000 nM; in assay [2] it was ≥ 5000 nM.
As to `CCS(=O)(=O)Nc1cc(-c2ccc3nc(-c4nc(C)c(C)[nH]4)oc3c2)cnc1OC` [Example 65, N-(5-(2-(4,5-Dimethyl-1H-imidazol-2-yl)benzo[d]oxazol-6-yl)-2-methoxypyridin-3-yl)ethanesulfonamide bis(trifluoroacetate)], the IC50 in assay [2] is < 1000 nM.
For `CP(C)(=O)c1cncc(-c2ccc3nc(-c4nc5ccccc5[nH]4)oc3c2)c1` [Example 72, 2-(1H-Benzo[d]imidazol-2-yl)-6-(5-(dimethylphosphoryl)pyridin-3-yl)benzo[d]oxazole bis(trifluoroacetate)], the IC50 in assay [2] is ≥ 5000 nM.
